Measurements taken from patent US9630958B2, “Triazine compounds” (Sphaera Pharma Pte. Ltd., priority 2012, dated 2017).

Key:
Recombinant mTOR (FRAP1) = target: T1, Recombinant mTOR (FRAP1) (Homo sapiens, UniProt P42345); experiment: mTOR in vitro kinase assay (TR-FRET, phosphorylation of GFP-4E-BP1); type: biochemical; details: for inhibition at 1 µM: 1 uM compound, read-out: mTOR % Inhib@1 uM; for IC50: 8 μM ATP, 400 nM GFP-4E-BP1
T1 construct: purchased Invitrogen
Protocol: Compounds were evaluated for mTOR activity using an in vitro kinase assay.
mTOR activity is measured in vitro by determining the level of phosphorylation of the protein substrate 4EBP-1. The phosphorylation of GFP-4E-BP1 at threonine residue is recognized by Ab Tb-Anti-p4EBP1, which results in time resolved fluorescence energy transfer (TR-FRET) between GFP and Terbium in the Ab-Protein complex.
Recombinant mTOR (FRAP1), Kinase reaction buffer, GFP-4E-BP1 and LanthaScreen Tb-anti-4E-BP1 (pThr46), TR FRET dilution buffer, Kinase Quench Buffer were obtained from Invitrogen.
Kinase reactions were performed in 10 μl volume in Corning white 384 well plates. […] The reaction was initiated by the addition of substrate (GFP-4E-BP1) and ATP at a final conc. of 400 nM and 8 μM ATP in the reaction respectively. The kinase reaction was allowed to proceed for 1 hour at room temperature before a 10 μL preparation of kinase quench buffer and Tb-labeled Antibody in TR-FRET dilution buffer was added. The final concentration of the antibody in the assay well is 2 nM and the final concentration of EDTA is 10 mM. The plate was incubated at room temperature for 1 h.
(§1) FRET signal was read in Envision Multilabel Reader with the following filters:
Excitation-330 nm and Emission 486 nm (donor) and 520 nm (acceptor).
TR FRET Ratio (Fluorescence 520 nm/Fluorescence 486 nm) was plotted against the concentration of inhibitor and data was fit to Non Linear Regression curve fit (sigmoidal dose response curve with variable slope-four parameters) using Graph Pad Prism 5.

[1] = target: T2, PI3 Kinase alpha (p110 alpha/p85 alpha) (Homo sapiens, UniProt P42336); experiment: PI3K TR-FRET assay (Transcreener ADP2); type: biochemical; details: for inhibition at 1 µM: 1 uM compound, read-out: PI3K % Inhib@1 uM; for IC50: PI3K alpha, 1 μM ATP, 50 μM PIP2
T2 construct: purchased Invitrogen
Protocol: Enzymatic activity of PI3K alpha was measured using Time resolved Fluorescence resonance energy transfer (TR-FRET) assay. This assay utilizes ADP detection as a means to screen inhibitor potency of compounds. The Transcreener ADP2 TR-FRET Red Assay is a competitive immunoassay for ADP with a far-red, TR-FRET readout and it has been used for this purpose. The assay can be used for any enzyme class that produces ADP (Kinases, ATPases). It consists of ADP HiLyte647 Tracer, ADP^2 Antibody-Tb conjugate (800 nM), stop & detect buffer, 5 mM ATP, 5 mM ADP. The ADP HiLyte647 Tracer is bound to an ADP^2 Antibody-Tb conjugate. The excitation of the terbium complex in the UV range results in energy transfer to the tracer and emission at a higher wavelength after a time delay ADP produced by the target enzyme displaces the tracer which causes decrease in TR-FRET.
The reaction buffer used for the assay was 50 mM HEPES, pH 7.4.3 mM MgCl2, 0.05% CHAPS, 50 mM NaCl, 2 mM DTT, 1 mM EGTA. PI3 Kinase alpha (p110 alpha/p85 alpha) and PIP2 Substrate (diC8,) were procured from Invitrogen and Echelon respectively.
Kinase reactions were performed in 10 μl volume in Corning white 384 well plates. […] Reaction was initiated by the addition of substrate (PIP2) and ATP at final conc. of 50 μM and 1 μM ATP in the reaction respectively. Kinase reactions were allowed to proceed for 1 hour at room temperature before a 10 μL preparation of Transcreener ADP detection mix was added. Plate was incubated at room temperature for 1 hr. ADP-ATP standard curves were also prepared.
as §1
Excitation-330 nm and Emission 615 nm (donor) and 665 nm (acceptor). TR FRET Ratio (Fluorescence 665 nm/Fluorescence 615 nm) was converted to amount of product formed using the standard curve generated. Percentage inhibition was calculated and plotted against the concentration of inhibitor and data was fit to Non Linear Regression curve fit (sigmoidal dose response curve with variable slope-four parameters) using Graph pad prism 5 and IC50 was calculated for the compound.

T2 sequence (P42336 whole entry): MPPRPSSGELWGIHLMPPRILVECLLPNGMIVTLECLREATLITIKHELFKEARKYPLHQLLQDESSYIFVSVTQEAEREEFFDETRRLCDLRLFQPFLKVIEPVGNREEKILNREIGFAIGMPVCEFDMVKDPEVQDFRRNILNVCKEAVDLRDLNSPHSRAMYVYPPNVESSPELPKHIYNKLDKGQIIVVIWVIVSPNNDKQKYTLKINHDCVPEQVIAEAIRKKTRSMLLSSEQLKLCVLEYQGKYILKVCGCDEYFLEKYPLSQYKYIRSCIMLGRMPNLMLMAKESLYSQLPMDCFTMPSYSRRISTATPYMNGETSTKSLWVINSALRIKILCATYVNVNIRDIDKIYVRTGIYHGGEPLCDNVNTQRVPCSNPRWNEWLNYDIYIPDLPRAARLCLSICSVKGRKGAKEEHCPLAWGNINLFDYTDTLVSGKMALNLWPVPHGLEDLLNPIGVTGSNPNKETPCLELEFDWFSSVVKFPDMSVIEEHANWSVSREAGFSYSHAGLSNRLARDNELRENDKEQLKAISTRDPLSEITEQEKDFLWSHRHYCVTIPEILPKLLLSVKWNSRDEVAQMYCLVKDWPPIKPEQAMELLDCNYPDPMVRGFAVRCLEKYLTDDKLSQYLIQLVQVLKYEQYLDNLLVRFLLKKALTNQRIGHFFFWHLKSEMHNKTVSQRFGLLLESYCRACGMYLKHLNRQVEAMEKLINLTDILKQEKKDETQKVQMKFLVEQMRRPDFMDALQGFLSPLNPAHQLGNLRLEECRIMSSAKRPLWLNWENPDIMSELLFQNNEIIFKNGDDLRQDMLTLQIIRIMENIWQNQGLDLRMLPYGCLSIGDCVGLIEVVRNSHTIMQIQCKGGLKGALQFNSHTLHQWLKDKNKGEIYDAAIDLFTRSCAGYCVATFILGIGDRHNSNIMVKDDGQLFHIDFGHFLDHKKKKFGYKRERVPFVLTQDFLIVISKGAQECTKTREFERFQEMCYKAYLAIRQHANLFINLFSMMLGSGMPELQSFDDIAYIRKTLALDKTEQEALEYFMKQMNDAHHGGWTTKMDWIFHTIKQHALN
T2 sequence (P27986 whole entry partner): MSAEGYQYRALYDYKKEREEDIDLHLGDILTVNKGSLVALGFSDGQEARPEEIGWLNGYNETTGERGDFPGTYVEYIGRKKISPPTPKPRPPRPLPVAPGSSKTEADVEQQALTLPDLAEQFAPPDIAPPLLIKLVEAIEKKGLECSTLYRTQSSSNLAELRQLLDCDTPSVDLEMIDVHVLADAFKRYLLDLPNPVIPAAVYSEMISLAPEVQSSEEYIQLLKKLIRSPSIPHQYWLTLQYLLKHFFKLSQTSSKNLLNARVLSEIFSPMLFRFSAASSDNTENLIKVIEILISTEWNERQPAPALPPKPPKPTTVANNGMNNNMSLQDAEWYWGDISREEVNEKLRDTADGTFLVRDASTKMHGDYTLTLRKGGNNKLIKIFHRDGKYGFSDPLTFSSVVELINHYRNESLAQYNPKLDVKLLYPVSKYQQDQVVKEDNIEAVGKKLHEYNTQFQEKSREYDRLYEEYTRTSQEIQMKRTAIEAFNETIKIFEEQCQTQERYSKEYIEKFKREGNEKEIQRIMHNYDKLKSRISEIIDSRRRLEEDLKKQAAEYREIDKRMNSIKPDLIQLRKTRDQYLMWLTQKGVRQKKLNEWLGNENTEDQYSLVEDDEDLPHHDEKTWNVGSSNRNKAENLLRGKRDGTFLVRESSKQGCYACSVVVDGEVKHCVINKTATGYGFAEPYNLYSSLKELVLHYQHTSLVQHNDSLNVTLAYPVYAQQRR
T1 sequence (P42345 1360-2549 limits assumed): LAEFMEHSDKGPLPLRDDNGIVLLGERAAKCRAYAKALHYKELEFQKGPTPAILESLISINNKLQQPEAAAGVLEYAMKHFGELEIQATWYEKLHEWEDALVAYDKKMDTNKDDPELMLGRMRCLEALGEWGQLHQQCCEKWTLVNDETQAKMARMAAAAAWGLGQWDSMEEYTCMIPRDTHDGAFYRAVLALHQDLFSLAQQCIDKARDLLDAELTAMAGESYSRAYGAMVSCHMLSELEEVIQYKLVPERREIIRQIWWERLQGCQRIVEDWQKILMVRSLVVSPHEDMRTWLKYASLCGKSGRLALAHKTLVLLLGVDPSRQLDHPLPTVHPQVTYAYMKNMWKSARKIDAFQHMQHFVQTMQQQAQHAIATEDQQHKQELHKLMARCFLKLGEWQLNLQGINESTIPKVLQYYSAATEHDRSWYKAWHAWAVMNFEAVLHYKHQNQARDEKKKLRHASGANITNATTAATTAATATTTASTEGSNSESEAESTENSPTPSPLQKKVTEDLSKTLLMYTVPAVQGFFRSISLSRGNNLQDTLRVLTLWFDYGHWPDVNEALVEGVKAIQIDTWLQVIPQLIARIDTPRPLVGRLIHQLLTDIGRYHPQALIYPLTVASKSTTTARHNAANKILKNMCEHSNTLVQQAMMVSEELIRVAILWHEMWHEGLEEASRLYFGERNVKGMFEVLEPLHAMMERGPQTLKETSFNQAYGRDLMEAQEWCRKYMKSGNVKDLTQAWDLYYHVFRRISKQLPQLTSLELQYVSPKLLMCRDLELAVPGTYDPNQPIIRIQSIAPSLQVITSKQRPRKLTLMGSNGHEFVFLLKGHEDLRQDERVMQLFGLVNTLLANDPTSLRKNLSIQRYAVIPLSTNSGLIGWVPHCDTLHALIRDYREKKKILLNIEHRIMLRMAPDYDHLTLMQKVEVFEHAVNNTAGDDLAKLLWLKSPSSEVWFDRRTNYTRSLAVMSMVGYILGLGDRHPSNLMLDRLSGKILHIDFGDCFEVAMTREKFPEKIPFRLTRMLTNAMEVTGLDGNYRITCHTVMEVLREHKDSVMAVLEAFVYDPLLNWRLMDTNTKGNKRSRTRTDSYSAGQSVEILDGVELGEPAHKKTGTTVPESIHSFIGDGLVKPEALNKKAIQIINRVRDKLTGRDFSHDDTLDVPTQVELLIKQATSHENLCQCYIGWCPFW

Row | SMILES | inhibition at 1 µM (Recombinant mTOR (FRAP1)) [%] | inhibition at 1 µM [1] [%] | IC50 (Recombinant mTOR (FRAP1)) [nM] | IC50 [1] [nM]
1 | CN(C)C(=O)c1ccc(Oc2nc(-c3cnc(N)s3)nc(N3C[C@H]4C[C@@H](C3)O4)n2)cc1 [Compound 10046, 4-(4-(2-aminothiazol-5-yl)-6-((1R,5S)-6-oxa-3-azabicyclo[3.1.1]heptan-3-yl)-1,3,5-triazin-2-yloxy)-N,N-dimethylbenzamide] | < 50 | < 50 | – | –
2 | CN(C)C(=O)c1ccc(Oc2nc(-c3cnc(N)s3)nc(N3CCOc4ccccc43)n2)cc1 [Compound 10029, 4-(4-(2-aminothiazol-5-yl)-6-(2H-benzo[b][1,4]oxazin-4(3H)-yl)-1,3,5-triazin-2-yloxy)-N,N-dimethylbenzamide] | > 50 | < 50 | < 1000 | > 1000
3 | CN(C)C(=O)[C@H]1CC[C@H](Oc2nc(-c3ccc(N)nc3)nc(N3CCO[C@@H]4CCC[C@H]43)n2)CC1 [Compound 10148, (1R,4r)-4-(4-(6-aminopyridin-3-yl)-6-((4aR,7aR)-hexahydrocyclopenta[b][1,4]oxazin-4(4aH)-yl)-1,3,5-triazin-2-yloxy)-N,N-dimethylcyclohexanecarboxamide] | – | < 50 | < 1000 | –
4 | CN(C)C(=O)c1ccc(Oc2nc(-c3cnc(N)s3)nc(N3CCCOCC3)n2)cc1 [Compound 10192, 4-((4-(2-aminothiazol-5-yl)-6-(1,4-oxazepan-4-yl)-1,3,5-triazin-2-yl)oxy)-N,N-dimethylbenzamide] | < 50 | – | > 1000 | > 1000
5 | CN(C)C(=O)[C@H]1CC[C@H](Oc2nc(-c3cnc(N)s3)nc(N3CCO[C@H]4CCC[C@@H]43)n2)CC1 [Compound 10145, (1S,4r)-4-(4-(2-aminothiazol-5-yl)-6-((4aS,7aS)-hexahydrocyclopenta[b][1,4]oxazin-4(4aH)-yl)-1,3,5-triazin-2-yloxy)-N,N-dimethylcyclohexanecarboxamide] | – | < 50 | > 1000 | –
6 | C[C@@H]1CN(c2nc(Oc3ccc(C(=O)N(C)C)cc3F)nc(-c3ccc4[nH]ncc4c3)n2)[C@@H](C)CO1 [Compound 10064, 4-((4-((2R,3S)-2,5-dimethylmorpholino)-6-(1H-indazol-5-yl)-1,3,5-triazin-2-yl)oxy)3-fluoro-N,N-dimethylbenzamide] | – | < 50 | < 1000 | –
7 | C[C@H]1COCCN1c1nc(Oc2ccc(C(=O)N(C)C)cc2F)nc(-c2cnc(N)nc2)n1 [Compound 10204, (S)-4-((4-(2-aminopyrimidin-5-yl)-6-(3-methylmorpholino)-1,3,5-triazin-2-yl)oxy)-3-fluoro-N,N-dimethylbenzamide] | – | – | < 1000 | < 1000
8 | C[C@H]1COC[C@H](C)N1c1nc(Oc2ccc(C(=O)N(C)C)cc2)nc(-c2cnc(N)s2)n1 [Compound 10078, 4-((4-(2-Aminothiazol-5-yl)-6-((3S,5S)-3,5-dimethylmorpholino)-1,3,5-triazin-2-yl)oxy)-N,N-dimethybenzamide] | > 50 | > 50 | < 1000 | < 1000
9 | C[C@H]1COCCN1c1nc(Oc2ccc(C(=O)N(C)C)cc2)nc(-c2ccc(N)nc2)n1 [Compound 10096, (S)-4-((4-(6-Aminopyridin-3-yl)-6-(3-methylmorpholino)-1,3,5-triazin-2-yl)oxy)-N,N-dimethylbenzamide] | > 50 | – | < 1000 | < 1000
10 | CN(C)C(=O)c1ccc(Oc2nc(-c3ccc4[nH]ncc4c3)nc(N3CC4CCC(C3)O4)n2)c(F)c1 [Compound 10140, 4-(4-(8-oxa-3-aza-bicyclo[3.2.1]octan-3-yl)-6-(1H-indazol-5-yl)-1,3,5-triazin-2-yloxy)-3-fluoro-N,N-dimethylbenzamide] | > 50 | – | < 1000 | > 10000
11 | CC1COCCN1c1nc(Oc2ccc(C(=O)N(C)C)cc2)nc(-c2cnc(N)s2)n1 (stereo not drawn) [Compound 10006, 4-(4-(2-aminothiazol-5-yl)-6-(3-methylmorpholino)-1,3,5-triazin-2-yloxy)-N,N-dimethylbenzamide] | < 50 | > 50 | – | > 1000
